According to ChEMBL document CHEMBL3877279, “Design, synthesis, in-silico and biological evaluation of novel donepezil derivatives as multi-target-directed ligands for the treatment of Alzheimer's disease” (Eur J Med Chem, 2017):
Calls of active or inactive are those of the source. No cut-off for these calls is given here.

Assays:
[1] = target: Cholinesterase (Equus caballus, UniProt P81908); assay: Inhibition of equine serum BuChE using butyrylthiocholine iodide as substrate preincubated for 5 mins followed by substrate addition measured after 2 mins by Ellman's method; format: ADME
Chain of Cholinesterase (P81908 whole entry): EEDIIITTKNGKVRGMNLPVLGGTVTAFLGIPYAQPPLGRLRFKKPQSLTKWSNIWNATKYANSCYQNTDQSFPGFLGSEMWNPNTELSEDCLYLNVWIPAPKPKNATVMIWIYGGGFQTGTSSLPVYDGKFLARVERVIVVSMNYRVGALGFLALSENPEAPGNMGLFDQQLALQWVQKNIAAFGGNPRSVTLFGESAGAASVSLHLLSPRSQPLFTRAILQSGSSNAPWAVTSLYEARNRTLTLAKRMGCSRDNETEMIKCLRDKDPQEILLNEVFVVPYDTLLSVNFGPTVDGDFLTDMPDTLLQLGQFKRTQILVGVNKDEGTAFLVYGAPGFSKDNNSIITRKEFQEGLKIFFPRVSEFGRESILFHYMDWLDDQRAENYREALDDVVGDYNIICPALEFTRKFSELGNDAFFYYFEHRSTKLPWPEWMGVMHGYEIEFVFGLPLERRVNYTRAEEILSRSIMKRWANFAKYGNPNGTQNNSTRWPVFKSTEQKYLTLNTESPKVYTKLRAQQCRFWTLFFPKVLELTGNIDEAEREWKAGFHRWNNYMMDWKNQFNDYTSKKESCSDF

[2] = target: T1, Amyloid-beta precursor protein (Homo sapiens, UniProt P05067); assay: Inhibition of HFIP-pretreated amyloid beta (1 to 42) (unknown origin) self-induced aggregation at 25 uM after 48 hrs by thioflavin-T fluorescence assay relative to control
T1 sequence (P05067 whole entry): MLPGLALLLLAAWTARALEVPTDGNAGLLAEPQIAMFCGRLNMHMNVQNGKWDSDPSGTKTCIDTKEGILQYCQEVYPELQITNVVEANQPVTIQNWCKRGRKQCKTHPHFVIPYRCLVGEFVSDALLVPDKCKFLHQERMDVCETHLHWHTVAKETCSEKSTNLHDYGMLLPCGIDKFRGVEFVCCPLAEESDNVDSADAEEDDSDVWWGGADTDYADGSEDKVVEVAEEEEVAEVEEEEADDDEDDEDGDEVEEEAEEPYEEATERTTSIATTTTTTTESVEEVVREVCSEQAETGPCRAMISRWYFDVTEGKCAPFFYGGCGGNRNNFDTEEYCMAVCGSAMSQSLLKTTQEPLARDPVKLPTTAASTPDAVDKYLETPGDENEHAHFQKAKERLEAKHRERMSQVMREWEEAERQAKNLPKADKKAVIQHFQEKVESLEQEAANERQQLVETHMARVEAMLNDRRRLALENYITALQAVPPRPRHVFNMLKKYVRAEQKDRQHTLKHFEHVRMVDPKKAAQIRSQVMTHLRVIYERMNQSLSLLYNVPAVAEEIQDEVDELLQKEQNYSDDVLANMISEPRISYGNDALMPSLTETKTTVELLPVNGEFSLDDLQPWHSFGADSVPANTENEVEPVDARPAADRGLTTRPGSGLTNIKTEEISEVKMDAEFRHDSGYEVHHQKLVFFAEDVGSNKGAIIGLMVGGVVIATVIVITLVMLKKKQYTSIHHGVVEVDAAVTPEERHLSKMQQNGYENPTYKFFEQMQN

[3] = Antioxidant activity assessed as trolox equivalent of AAPH radical scavenging activity at 1 to 25 uM preincubated for 15 mins followed by AAPH addition measured every min for 80 mins by ORAC-FL assay; format: functional
[4] = Selectivity index, ratio of IC50 for equine serum BuChE to IC50 for Electric eel AChE
[5] = target: Acetylcholinesterase (Electrophorus electricus, UniProt O42275); assay: Inhibition of Electric eel AChE using acetylthiocholine iodide as substrate preincubated for 5 mins followed by substrate addition measured after 2 mins by Ellman's method
Chain of Acetylcholinesterase (O42275 whole entry): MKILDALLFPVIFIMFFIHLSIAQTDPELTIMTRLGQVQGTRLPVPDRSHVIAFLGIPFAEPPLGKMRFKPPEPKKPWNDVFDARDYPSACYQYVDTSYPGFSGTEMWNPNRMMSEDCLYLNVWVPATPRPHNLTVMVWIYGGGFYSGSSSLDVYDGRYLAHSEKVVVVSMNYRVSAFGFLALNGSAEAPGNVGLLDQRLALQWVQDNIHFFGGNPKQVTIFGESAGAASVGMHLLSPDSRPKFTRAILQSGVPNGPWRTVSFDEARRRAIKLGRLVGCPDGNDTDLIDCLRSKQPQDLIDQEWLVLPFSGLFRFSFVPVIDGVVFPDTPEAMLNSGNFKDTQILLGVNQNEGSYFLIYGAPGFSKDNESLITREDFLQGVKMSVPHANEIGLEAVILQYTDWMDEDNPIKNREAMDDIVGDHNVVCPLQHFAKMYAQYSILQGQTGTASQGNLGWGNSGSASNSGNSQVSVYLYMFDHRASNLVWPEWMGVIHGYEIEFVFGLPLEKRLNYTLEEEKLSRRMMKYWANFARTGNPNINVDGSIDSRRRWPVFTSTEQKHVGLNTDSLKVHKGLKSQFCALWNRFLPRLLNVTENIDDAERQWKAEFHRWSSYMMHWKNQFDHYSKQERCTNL

[6] = target: T1, Amyloid-beta precursor protein; assay: Inhibition of amyloid beta (1 to 42) (unknown origin) fibril formation at 25 uM after 48 hrs by uranyl acetate staining based transmission electron microscopic method
[7] = target: T1, Amyloid-beta precursor protein; assay: Inhibition of HFIP-pretreated amyloid beta (1 to 42) (unknown origin) self-induced aggregation after 48 hrs by thioflavin-T fluorescence assay
[8] = Cytotoxicity against human SH-SY5Y cells assessed as cell viability at 1 uM after 48 hrs by MTT assay relative to control; format: toxicity, cell-based; settings: read-out: Activity
[9] = tested on: SH-SY5Y; assay: Neuroprotective activity against H2O2-induced morphological changes in human SH-SY5Y cells assessed as decrease in floated appearance at 20 uM after 24 hrs by phase contrast microscopic method; format: functional, cell-based
[10] = tested on: SH-SY5Y; assay: Neuroprotective activity against H2O2-induced oxidative stress in human SH-SY5Y cells assessed as inhibition of ROS accumulation at 10 to 20 uM after 24 hrs by DCFH-DA probe based fluorescence assay; format: functional, cell-based
[11] = Cytotoxicity against human SH-SY5Y cells assessed as cell viability at 100 uM after 48 hrs by MTT assay relative to control; format: toxicity, cell-based; settings: read-out: Activity
[12] = target: Acetylcholinesterase (Electrophorus electricus) (UniProt O42275); assay: Mixed-type inhibition of Electric eel AChE at 10 to 40 nM using varying levels of acetylthiocholine iodide as substrate preincubated for 15 mins followed by substrate addition by Lineweaver-Burk plot analysis
Chain of Acetylcholinesterase (Electrophorus electricus) (O42275 24-633 limits assumed): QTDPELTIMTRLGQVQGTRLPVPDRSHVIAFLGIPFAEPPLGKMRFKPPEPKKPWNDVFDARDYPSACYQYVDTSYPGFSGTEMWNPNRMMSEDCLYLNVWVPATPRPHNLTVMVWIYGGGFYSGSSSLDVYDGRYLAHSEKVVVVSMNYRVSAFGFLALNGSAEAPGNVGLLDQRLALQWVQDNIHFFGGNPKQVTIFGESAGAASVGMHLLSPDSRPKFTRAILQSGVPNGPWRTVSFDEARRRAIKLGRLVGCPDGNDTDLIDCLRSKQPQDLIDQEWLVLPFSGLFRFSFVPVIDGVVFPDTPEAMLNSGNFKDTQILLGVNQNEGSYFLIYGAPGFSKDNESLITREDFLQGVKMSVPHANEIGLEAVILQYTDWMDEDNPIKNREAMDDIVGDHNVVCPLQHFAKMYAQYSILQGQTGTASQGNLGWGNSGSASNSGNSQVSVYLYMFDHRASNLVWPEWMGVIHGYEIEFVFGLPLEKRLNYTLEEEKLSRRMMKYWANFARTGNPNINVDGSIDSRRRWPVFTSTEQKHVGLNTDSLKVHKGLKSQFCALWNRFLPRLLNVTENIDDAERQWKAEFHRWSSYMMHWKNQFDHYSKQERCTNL

[13] = tested on: SH-SY5Y; assay: Neuroprotective activity against amyloid beta (1 to 42)-induced morphological changes in human SH-SY5Y cells assessed as decrease in shrinked cell body at 20 uM after 48 hrs by phase contrast microscopic method; format: functional, cell-based
[14] = tested on: SH-SY5Y; assay: Neuroprotective activity against H2O2-induced morphological changes in human SH-SY5Y cells assessed as decrease in cell vacuolation at 20 uM after 24 hrs by phase contrast microscopic method; format: functional, cell-based
[15] = Cytotoxicity against human SH-SY5Y cells assessed as cell viability at 5 uM after 48 hrs by MTT assay relative to control; format: toxicity, cell-based; settings: read-out: Activity
[16] = Cytotoxicity against human SH-SY5Y cells assessed as cell viability at 25 uM after 48 hrs by MTT assay relative to control; format: toxicity, cell-based; settings: read-out: Activity
[17] = Cytotoxicity against human SH-SY5Y cells assessed as reduction in cell viability after 48 hrs by MTT assay; format: toxicity, cell-based
[18] = Cytotoxicity against human SH-SY5Y cells assessed as cell viability at 10 uM after 48 hrs by MTT assay relative to control; format: toxicity, cell-based; settings: read-out: Activity
[19] = Cytotoxicity against human SH-SY5Y cells assessed as cell viability at 75 uM after 48 hrs by MTT assay relative to control; format: toxicity, cell-based; settings: read-out: Activity
[20] = Cytotoxicity against human SH-SY5Y cells assessed as cell viability at 50 uM after 48 hrs by MTT assay relative to control; format: toxicity, cell-based; settings: read-out: Activity
[21] = tested on: SH-SY5Y; assay: Neuroprotective activity against H2O2-induced oxidative stress in human SH-SY5Y cells assessed as increase in cell viability at 20 uM after 24 hrs by MTT assay; format: functional, cell-based
[22] = tested on: SH-SY5Y; assay: Neuroprotective activity against H2O2-induced morphological changes in human SH-SY5Y cells assessed as decrease in cell rounding at 20 uM after 24 hrs by phase contrast microscopic method; format: functional, cell-based
[23] = tested on: SH-SY5Y; assay: Neuroprotective activity against amyloid beta (1 to 42)-induced neurodegeneration in human SH-SY5Y cells assessed as increase in cell viability at 10 uM after 48 hrs by MTT assay; format: functional, cell-based
[24] = tested on: SH-SY5Y; assay: Neuroprotective activity against amyloid beta (1 to 42)-induced morphological changes in human SH-SY5Y cells assessed as decrease in fragmented or rounded floating cells at 20 uM after 48 hrs by phase contrast microscopic method; format: functional, cell-based
[25] = tested on: SH-SY5Y; assay: Neuroprotective activity against amyloid beta (1 to 42)-induced morphological changes in human SH-SY5Y cells assessed as decrease in loss of adherence at 20 uM after 48 hrs by phase contrast microscopic method; format: functional, cell-based
[26] = tested on: SH-SY5Y; assay: Neuroprotective activity against amyloid beta (1 to 42)-induced morphological changes in human SH-SY5Y cells assessed as decrease in fading synapses at 20 uM after 48 hrs by phase contrast microscopic method; format: functional, cell-based
[27] = tested on: SH-SY5Y; assay: Neuroprotective activity against H2O2-induced oxidative stress in human SH-SY5Y cells assessed as inhibition of ROS accumulation after 24 hrs by DCFH-DA probe based fluorescence assay; format: functional, cell-based
[28] = tested on: SH-SY5Y; assay: Neuroprotective activity against H2O2-induced oxidative stress in human SH-SY5Y cells assessed as increase in cell viability at 10 uM after 24 hrs by MTT assay; format: functional, cell-based
[29] = tested on: SH-SY5Y; assay: Neuroprotective activity against amyloid beta (1 to 42)-induced neurodegeneration in human SH-SY5Y cells assessed as increase in cell viability at 20 uM after 48 hrs by MTT assay; format: functional, cell-based
[30] = Effect on basal ROS level in human SH-SY5Y cells at 5 to 20 uM after 24 hrs by DCFH-DA probe based fluorescence assay; format: ADME, cell-based
[31] = target: T1, Amyloid-beta precursor protein; assay: Potency index, ratio of curcumin IC50 to compound IC50 for HFIP-pretreated amyloid beta (1 to 42) (unknown origin) self-induced aggregation
[32] = tested on: SH-SY5Y; assay: Neuroprotective activity against H2O2-induced oxidative stress in human SH-SY5Y cells assessed as increase in cell viability at 5 to 20 uM after 24 hrs by MTT assay; format: functional, cell-based
[33] = target: T1, Amyloid-beta precursor protein; assay: Potency index, ratio of compound effect to curcumin effect for inhibition of HFIP-pretreated amyloid beta (1 to 42) (unknown origin) self-induced aggregation at 25 uM

COc1cc2c(cc1OC)C(=O)/C(=C/c1ccc(N3CCN(c4ccc(C)cc4)CC3)cc1)C2
IC50 [1]: 1850 nM
inhibition [2]: 63.5%
Activity (umolequiv/umol) [3]: 1.3
Ratio IC50 [4]: 9.5
IC50 [5]: 194 nM

COc1cc(/C=C/C(=O)CC(=O)/C=C/c2ccc(O)c(OC)c2)ccc1O
inhibition [6]: Active

COc1cc2c(cc1OC)C(=O)/C(=C/c1ccc(N3CCN(c4ccc(C(F)(F)F)cc4)CC3)cc1)C2
IC50 [1]: 214 nM
inhibition [2]: 64.2%
Activity (umolequiv/umol) [3]: 1.72
Ratio IC50 [4]: 1.4
IC50 [5]: 153 nM

COc1cc2c(cc1OC)C(=O)/C(=C/c1ccc(N3CCN(Cc4ccc5c(c4)OCO5)CC3)cc1)C2
IC50 [1]: 12200 nM
inhibition [2]: 64.5%
Activity (umolequiv/umol) [3]: 3.35
Ratio IC50 [4]: 6.5
IC50 [5]: 1860 nM

COc1cc2c(cc1OC)C(=O)/C(=C/c1ccc(N3CCN(C(c4ccccc4)c4ccccc4)CC3)cc1)C2
IC50 [1]: 4890 nM
IC50 [7]: 12200 nM
inhibition [2]: 78.2%
Activity (umolequiv/umol) [3]: 1.41
Ratio IC50 [4]: 59.6
IC50 [5]: 82 nM

COc1cc2c(cc1OC)C(=O)/C(=C/c1ccc(N3CCN(c4ccc(F)cc4)CC3)cc1)C2
IC50 [1]: 3240 nM
inhibition [2]: 66.8%
Activity (umolequiv/umol) [3]: 1.93
Ratio IC50 [4]: 6.1
IC50 [5]: 528 nM

COc1cc2c(cc1OC)C(=O)/C(=C/c1ccc(N3CCN(c4ccc(C)cc4C)CC3)cc1)C2
IC50 [1]: 5130 nM
inhibition [2]: 65.7%
Activity (umolequiv/umol) [3]: 1.35
Ratio IC50 [4]: 45.8
IC50 [5]: 112 nM

COc1cc2c(cc1OC)C(=O)/C(=C/c1ccc(N3CCN(c4ncccn4)CC3)cc1)C2
IC50 [1]: 2430 nM
viability at 48 h, 1 µM [8]: 98.5%
Activity [9]: Active
inhibition [10]: Active
viability at 48 h, 100 µM [11]: 82.4%
IC50 [7]: 9900 nM
inhibition [12]: Active
Activity [13]: Active
Activity [14]: Active
viability at 48 h, 5 µM [15]: 96.1%
viability at 48 h, 25 µM [16]: 92.8%
inhibition [2]: 81.6%
Activity [17]: Dose-dependent effect
Activity (umolequiv/umol) [3]: 2.34
viability at 48 h, 10 µM [18]: 94.7%
viability at 48 h, 75 µM [19]: 85.7%
Ratio IC50 [4]: 97.3
viability at 48 h, 50 µM [20]: 89.3%
Activity [21]: Active
Activity [22]: Active
inhibition [6]: Active
Activity [23]: Active
IC50 [5]: 25 nM
Activity [24]: Active
Activity [25]: Active
Activity [26]: Active

COc1cc2c(cc1OC)C(=O)/C(=C/c1ccc(N3CCN(Cc4ccccc4)CC3)cc1)C2
IC50 [1]: 88 nM
inhibition [2]: 48.5%
Activity (umolequiv/umol) [3]: 1.69
Ratio IC50 [4]: 0.03
IC50 [5]: 2620 nM

COc1cc2c(cc1OC)C(=O)/C(=C/c1ccc(N3CCN(C(=O)c4ccccc4)CC3)cc1)C2
IC50 [1]: 365 nM
inhibition [2]: 61.4%
Activity (umolequiv/umol) [3]: 2.31
Ratio IC50 [4]: 0.2
IC50 [5]: 1700 nM

COc1cc2c(cc1OC)C(=O)/C(=C/c1ccc(N3CCN(C(=O)c4ccoc4)CC3)cc1)C2
IC50 [1]: 1970 nM
inhibition [27]: Dose-dependent effect
viability at 48 h, 1 µM [8]: 96%
Activity [9]: Active
viability at 48 h, 100 µM [11]: 81.1%
IC50 [7]: 10900 nM
Activity [13]: Active
Activity [28]: Active
Activity [14]: Active
viability at 48 h, 5 µM [15]: 94.4%
viability at 48 h, 25 µM [16]: 90.1%
Activity [29]: Active
inhibition [2]: 80.4%
Activity [17]: Dose-dependent effect
Activity (umolequiv/umol) [3]: 3.89
viability at 48 h, 10 µM [18]: 92.3%
viability at 48 h, 75 µM [19]: 83.7%
viability at 48 h, 50 µM [20]: 86.9%
Activity [22]: Active
Activity [30]: Non-Toxic
IC50 [5]: 34 nM
Activity [24]: Active
Activity [25]: Active
Activity [26]: Active

COc1cc2c(cc1OC)C(=O)/C(=C/c1ccc(N3CCN(C(c4ccc(F)cc4)c4ccc(F)cc4)CC3)cc1)C2
IC50 [1]: 3010 nM
viability at 48 h, 1 µM [8]: 97.1%
Activity [9]: Active
inhibition [10]: Active
viability at 48 h, 100 µM [11]: 80.3%
Ratio IC50 [31]: 2.96
IC50 [7]: 7400 nM
Activity [13]: Active
Activity [14]: Active
viability at 48 h, 5 µM [15]: 95.4%
viability at 48 h, 25 µM [16]: 92.8%
Activity [29]: Active
inhibition [2]: 83.7%
Activity [17]: Dose-dependent effect
Activity (umolequiv/umol) [3]: 2.98
viability at 48 h, 10 µM [18]: 95.7%
viability at 48 h, 75 µM [19]: 84.3%
Ratio IC50 [4]: 67
viability at 48 h, 50 µM [20]: 88.6%
Activity [22]: Active
Activity [32]: Active
inhibition [6]: Active
IC50 [5]: 45 nM
Activity [24]: Active
Activity [25]: Active
Activity [26]: Active

COc1cc2c(cc1OC)C(=O)/C(=C/c1ccc(N3CCN(c4ccccn4)CC3)cc1)C2
IC50 [1]: 1740 nM
inhibition [2]: 73.3%
Activity (umolequiv/umol) [3]: 2.08
Ratio IC50 [4]: 16.5
IC50 [5]: 105 nM

COc1ccc(N2CCN(c3ccc(/C=C4\Cc5cc(OC)c(OC)cc5C4=O)cc3)CC2)cc1
IC50 [1]: 603 nM
Ratio [33]: 1.26
inhibition [2]: 70.5%
Activity (umolequiv/umol) [3]: 3.39
Ratio IC50 [4]: 5.06
IC50 [5]: 119 nM

COc1cc2c(cc1OC)C(=O)/C(=C/c1ccc(N3CCN(c4ccccc4)CC3)cc1)C2
IC50 [1]: 5980 nM
inhibition [2]: 51.1%
Activity (umolequiv/umol) [3]: 0.64
Ratio IC50 [4]: 4.5
IC50 [5]: 1310 nM

COc1cc2c(cc1OC)C(=O)/C(=C/c1ccc(N3CCN(c4ccc(Cl)cc4)CC3)cc1)C2
IC50 [1]: 2220 nM
inhibition [2]: 59.5%
Activity (umolequiv/umol) [3]: 1.87
Ratio IC50 [4]: 7.6
IC50 [5]: 291 nM
